molecular target: T1, HuR (Homo sapiens, UniProt Q15717); experiment: Fluorescence polarization (FP) competition / dose-response assay of HuR/RNA interaction; format: binding; conditions: 10nM RNA and 50nM HuR, compounds serially diluted from 250uM
T1 construct: Full length (residue 1–326), RRM1-2 (residue 1–190); inferred from pET14b vector and metal chelation chromatography) (N); made in house; host or cells: E. coli BL21 Rosetta
Procedure: Fluorescence polarization measurements were performed in the 384-well plate format on a Biotek Synergy2 plate reader using 480/20nm excitation and 520/20nm emission filters. The NCI diversity set V library containing 1597 compounds was screened in this study. All samples were dissolved in phosphate buffer (50mM Napi, and 100mM NaCl, 5mM TCEP at pH 7.0). The assay mixture contained 50nM HuR and 10nM RNA to yield FP values approximately 80% of the maximum value observed for fully bound RNA. NCI diversity set V library in 96-well format (10mM stock in DMSO) was transferred to 384-well plate, and then diluted into 50uM in phosphate buffer. 5ul of 50uM compound stock was added to 20 ul assay mixture to yield 10uM final compound concentration.
We first characterized the binding of the full-length HuR with 11-mer polyribonucleotide derived from the 3’ UTR of the mRNA of the C-fos oncogene (Fig 1A). The binding curves were obtained by keeping the 5’FAM-RNA at 10 nM and adding increasing amounts of HuR. The apparent dissociation constant for the HuR/RNA binding was estimated to be approximately 20 nM (Fig 1A) using the simplified equation as described. To evaluate the expected effect of the inhibitors on the FP readout of the essay, we measured displacement of the fluorescently labeled RNA by the unlabeled RNA (Fig 1B). In displacement assay, the 10nM of 5’FAM-RNA concentration was mixed with 50nM at which fluorescence polarization value was approximately 80% of the maximal value. Fluorescence polarization was measured as a function of the unlabeled RNA concentration. IC50 was obtained (~40nM) by fitting to the equation specified in the figure legend (Fig 1B)
Supplementary file pone.0138780.s002.tif: S2 Fig Dose responses of hits on confirmed hits from primary screening. Compounds at 250uM in final concentration in the assay volume of 25uL were added to the mixture of 10nM RNA and 50nM HuR in the first well in 384 format plate followed by a serial dilution into next well where the concentration of RNA and HuR was kept constant. (TIF) Click here for additional data file.
Supplementary file pone.0138780.s010.doc: S1 Table IC50 for confirmed hits from primary HTS screening. IC50s were obtained by fitting to the equation of ΔP = ΔPmax/(1+10^((Logx0-X)*p)). (DOC) Click here for additional data file.

T1 sequence (Q15717 whole entry): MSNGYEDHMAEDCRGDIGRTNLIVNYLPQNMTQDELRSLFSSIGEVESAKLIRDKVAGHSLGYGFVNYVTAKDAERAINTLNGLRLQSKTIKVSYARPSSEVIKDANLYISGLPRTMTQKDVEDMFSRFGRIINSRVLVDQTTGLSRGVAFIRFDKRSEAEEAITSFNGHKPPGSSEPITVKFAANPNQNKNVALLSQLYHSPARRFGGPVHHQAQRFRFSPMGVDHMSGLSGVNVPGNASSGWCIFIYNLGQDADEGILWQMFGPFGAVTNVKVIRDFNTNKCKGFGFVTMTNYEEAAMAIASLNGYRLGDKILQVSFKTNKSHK

IC50 [µM] | Molecule
41 | Cc1ccc(Nc2ccc(N)cc2S(=O)(=O)O)cc1 [C2]
26.9 | O=C(O)c1cc(N2C(=O)C=CC2=O)cc(N2C(=O)C=CC2=O)c1 [C3]
97.4 | O=C(Nc1cccc([N+](=O)[O-])c1)c1ccc2ccccc2c1O [C4]
16.7 | O=C(O)C1=NN(c2cc(Cl)c(S(=O)(=O)O)cc2Cl)C(=O)C1 [C5]
4.6 | CCOC(=O)C(=O)Cc1cccnn1 [C7]
44.4 | CC#CC#Cc1cccc(=O)o1 [C8]
69.6 | COC(=O)CC1OCC=C2CN3CCC45C6=CC(=O)C(=O)C([N+](=O)[O-])=C6NC4C1C2CC35 (stereo not drawn) [C9]
17.4 | COCC(=O)OC1CCn2c1nc1c2C(=O)C(C)=C(NC(C)=O)C1=O (stereo not drawn) [C12]

Molecule | IC50 [µM]
CSc1nc(N)c(N=Nc2ccc([As](=O)(O)O)cc2)c(=O)[nH]1 [C6] | 2.7
COc1cccc2c1C(=O)c1c(O)c3c(c(O)c1C2=O)CC(O)(/C(C)=N/O)CC3OC1CC(N)C(O)C(C)O1 (stereo not drawn) [C10] | 21.7
CO[C@@H]1[C@@H](OC(=O)c2ccc(C)[nH]2)[C@@H](O)[C@H](Oc2ccc3c(O)c(NC(=O)c4ccc(O)c(CC=C(C)C)c4)c(=O)oc3c2Cl)OC1(C)C [C11] | 41.9

molecular target: T2, Full length HuR (Homo sapiens, UniProt Q15717); experiment: Sedimentation velocity analytical ultracentrifugation (AUC) of HuR dimer/oligomer; format: biochemical; conditions: 10uM HuR and 20uM compounds
T2 construct: Full length (residue 1–326), RRM1-2 (residue 1–190); inferred from pET14b vector and metal chelation chromatography) (N); made in house; host or cells: E. coli BL21 Rosetta
T2 sequence (Q15717 whole entry): as above
Procedure: Sedimentation velocity analytical ultracentrifugation was performed on a Beckman XLA analytical ultracentrifuge using an AN50 Ti rotor with standard Epon 2-channel centerpieces. The samples were spun at 25000rpm for~12hrs at 20 C. 25 scans measuring absorbance at 280nm were collected. The data were analyzed using Ultrascan III software.
Supplementary file pone.0138780.s005.tif: S5 Fig Post-hit validation using analytical ultracentrifugation (AUC). Sedimentation velocity studies are informative of the overall shape of molecule. […] We tested 4 compounds from secondary screening. 30% and 50% fraction of boundary were in orange. […] (TIF) Click here for additional data file.

effect on formation of HuR dimer/oligomer (shift of boundary toward monomer) | Molecule
did not | Cc1ccc(Nc2ccc(N)cc2S(=O)(=O)O)cc1 [C2]
did not | CC#CC#Cc1cccc(=O)o1 [C8]

molecular target: T3, HuR full length (UniProt Q15717 1-326); experiment: fluorescence polarization; 10 nM RNA; apparent Kd; FP: 50 mM Na phosphate, 100 mM NaCl, 5 mM TCEP, pH 7.0, 384-well plate; temperature not stated; NMR conditions not in material; conditions: protein: recombinant; (pET14b, metal chelation); label: 5'-FAM; single strand
T3 sequence (Q15717 whole entry): as above

Molecule | Kd [µM]
AUUUUUAUUUU (ssRNA) [5'-FAM c-Fos 11-mer ARE RNA] | ~0.02

molecular target: T3, HuR full length; experiment: competition (fluorescence polarization); displacement of 10 nM 5'-FAM RNA (N1) from 50 nM HuR; FP: 50 mM Na phosphate, 100 mM NaCl, 5 mM TCEP, pH 7.0, 384-well plate; temperature not stated; NMR conditions not in material; conditions: protein: recombinant; (pET14b, metal chelation); single strand

Molecule | IC50 [µM]
AUUUUUAUUUU (ssRNA) [unlabeled c-Fos 11-mer ARE RNA] | ~0.04

Reference: paper PMC4577092, “Identification of Small-Molecule Inhibitors of the HuR/RNA Interaction Using a Fluorescence Polarization Screening Assay Followed by NMR Validation” (PLoS ONE, 2015)
